From patent US4028383A, “Indolopyrones having antiallergic activity” (Warner-Lambert Company, priority 1975, dated 1977)

Test system: PCA reaction
Experiment: passive cutaneous anaphylaxis (PCA) procedure
Assay type: in vivo, male rats
Conditions: for % Inhibition: rats, 30 minutes prior to challenge
Description: In this procedure, male rats, between 180 and 200 grams in weight are passively sensitized forty-eight or seventy-two hours prior to test with rat sera containing reagintype antibodies. These sera are injected intradermally in four separate sites, two on each side of the ventral midline. Dose volume is 0.1 ml.
On the test-day animals receive drug or vehicle (placebo) 30 minutes prior to challenge. Test compounds are given i.p. on an mg/kg basis; usual volume is 0.5 ml/100 g body weight. Controls receive the vehicle, on the same weight-volume basis.
The challenging dose of 1.0 ml of Antigen-Evans Blue is administered i.v. This is prepared from either Ovalbumin or dinitrophenylated bovine gamma globulin, 10 mg, together with 5 ml of 0.5% Evans Blue, U.S.P., and 5 ml of normal saline. At 30 minutes after challenge each rat is sacrificed. A section of skin that includes the four sensitizing injection sites is removed.
Reaction is indicated by a blue coloration of the site and scored on the basis of color intensity. Size of the site is also reported.
Data is reported as the arithmetic mean score of a specific site for that group of five animals; the size of the spot is also reported as the mean for the group.
The relation between dilution of antibody and mean spot diameters approximates a straight line which is constructed by the method of least squares for the control animals. The maximum antibody concentration is set as "100% reactivity", with the extrapolated "zero" antibody concentration being 0%. Using this line the diameter at the highest antibody concentrations in any treated group is expressed as a percent of the control, i.e. "% inhibition." The treatment is judged "active" if the inhibition is 50% or greater.

For `Cn1c2ccccc2c2oc(C(=O)O)cc(=O)c21` [Example 5, 4,5-dihydro-5-methyl-4-oxopyrano[3,2-b]indole-2-carboxylic acid], the “% Inhibition” value (1.0 mg/kg I.P.) was 30%, the “% Inhibition” value (5.0 mg/kg I.P.) was 100% and the “% Inhibition” value (10.0 mg/kg I.P.) was 100%. For the same compound, the “% Inhibition” value (25.0 mg/kg I.P.) was 100% and the “antiallergic activity in passive cutaneous anaphylaxis” value (male rats, i.p. 30 minutes prior to challenge) was “highly effective as an antiallergic”.
